Square brackets hold non-standard residues; d marks the D form. Peptide text beside a SMILES is read from it. * marks the point of attachment. pNA = O=[N+]([O-])c1ccc(N*)cc1
Legend:
Human thrombin = molecular target: T1, Human thrombin (Homo sapiens, UniProt P00734); assay: In vitro chromogenic assay for thrombin (cleavage of peptide p-nitroanilide S2302); format: biochemical; settings: substrate concentration stated equal to its Km under the assay conditions; 20 nM thrombin, pH 7.5, ambient temperature
T1 construct: Human thrombin stock solution; purchased Enzyme Research Lab
Method: (§1) The activities were determined as an initial rate of cleavage of the peptide p-nitroanilide by the enzyme. The cleavage product, p-nitroaniline, absorbs at 405 nm with a molar extinction coefficient of 9920 M^-1 cm^-1.
(§2) 50 mM TrisHCl, 150 mM NaCl, 2.5 mM CaCl2, and 0.1% polyethylene glycol 6000, pH 7.5.
2. Human thrombin stock solution: Stored at -80° C. (working solution (2×): 1200 ng/mL or 40 nM in assay buffer, prepare prior to use).
2. S2302 (Thrombin assay) stock solution: 10 mM in dH2 O, stored at 4° C. (working solution (4×): 1200 μM in assay buffer).
(§3) Assays were performed in 96-well microtiter plates in a total volume of 200 μl. […] Concentrations of the standard inhibitor compound in the assay were from 5 μM to 0.021 μM in 1 to 3 dilution. Concentration of the test compounds in the assay typically were from 10 μM to 0.041 μM in 1 to 3 dilution. For potent test compounds, the concentrations used in the factor Xa assay were further diluted 100 fold (100 nM to […]) or 1000 fold (10 nM to 0.041 nM). […]
(§4) The enzyme kinetics were measured at 405 nm at 10 seconds intervals for five minutes in a THERMOmax plate reader at ambient temperature.
Enzyme rates were calculated as mOD/min based on the first two minutes readings. The IC50 values were determined by fitting the data to the log-logit equation (linear) or the Morrison equation (non-linear) with an EXCEL spread-sheet. […]

[1] = molecular target: T2, Human tissue plasminogen activator (tPA) (Two chains, Sigma) (Homo sapiens, UniProt P00750); assay: In vitro chromogenic assay for tissue plasminogen activator (cleavage of peptide p-nitroanilide S2288); format: biochemical; settings: substrate concentration stated equal to its Km under the assay conditions; 10 nM tPA, pH 7.5, ambient temperature
T2 construct: purchased Sigma
Method: as §1, §2
3. Human tissue plasminogen activator (tPA) (Two chains, Sigma) stock solution: 1 mg/mL, stored at -80° C. (working solution (2×): 1361 ng/mL in assay buffer, prepare prior to use).
3. S2288 (tPA assay) stock solution: 10 mM in dH2 O, stored at 4° C. (working solution (4×): 1484 μM in assay buffer).
as §3, with “nM). All substrate concentrations used are equal to their Km values under the present assay conditions. Assays were performed at ambient temperature.” for “nM).”
as §4

T2 sequence (P00750 311-562 limits assumed): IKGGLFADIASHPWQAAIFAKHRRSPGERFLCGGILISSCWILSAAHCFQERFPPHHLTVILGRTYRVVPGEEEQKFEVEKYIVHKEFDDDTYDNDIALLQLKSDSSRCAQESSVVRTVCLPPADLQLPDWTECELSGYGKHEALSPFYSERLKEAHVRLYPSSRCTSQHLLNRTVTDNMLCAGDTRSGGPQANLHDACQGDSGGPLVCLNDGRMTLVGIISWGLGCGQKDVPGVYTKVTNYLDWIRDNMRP
T2 sequence (P00750 36-310 partner limits assumed): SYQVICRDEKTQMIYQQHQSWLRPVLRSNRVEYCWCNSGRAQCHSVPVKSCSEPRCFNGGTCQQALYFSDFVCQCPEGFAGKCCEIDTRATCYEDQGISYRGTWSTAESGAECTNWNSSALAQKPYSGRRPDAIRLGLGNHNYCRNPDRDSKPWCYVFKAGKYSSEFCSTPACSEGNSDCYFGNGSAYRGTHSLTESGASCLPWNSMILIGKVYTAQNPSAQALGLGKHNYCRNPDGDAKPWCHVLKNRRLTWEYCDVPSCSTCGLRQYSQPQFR

Row | Km (Human thrombin) [µM] | Km [1] [µM] | SMILES
1 | 300 |  | N=C(N)NCCC[C@H](NC(=O)[C@H](Cc1ccccc1)NC(=O)[C@H]1CCCN1)C(=O)Nc1ccc([N+](=O)[O-])cc1 [Example S2302] (H-[dP]-Phe-Arg-pNA)
2 |  | 371 | CC[C@@H](C)[C@@H](N)C(=O)N1CCC[C@H]1C(=O)N[C@@H](CCCN=C(N)N)C(=O)Nc1ccc([N+](=O)[O-])cc1 [Example S2288] (H-[dI]-Pro-Arg-pNA)
